In ChEMBL document CHEMBL6074689 (Eur J Med Chem, 2025) one finds IC50 and Activity data, which are given here for eleven compounds.

Data set [1] has as its target T1, Acetylcholinesterase (Homo sapiens, UniProt P22303). The data set is described as follows: Inhibition of human recombinant AChE expressed in HEK293 cells using acetylthiocholine iodide as substrate preincubated with compound for 30 mins followed by substrate addition and measured after 30 mins by DTNB reagent based Ellman's method. Background: DTNB colorimetry detects thiols as they appear.

A further data set concerns the target Cholinesterase (Equus caballus, UniProt P81908). The data set is described as follows: Inhibition of equine serum BChE using acetylthiocholine iodide as substrate preincubated with compound for 30 mins followed by substrate addition and measured after 30 mins by DTNB reagent based Ellman's method.
The subject of data set [2] is Drosophila melanogaster. The data set is described as follows: Anti-alzheimer activity in ey-GAL4 driven UAS-amyloid beta (1 to 42) induced Drosophila melanogaster Oregon R-positive assessed as mild eye phenotype at 100 uM by Stereo zoom microscopic imaging analysis relative to control. In kind it is functional.
The subject of data set [3] is Drosophila melanogaster. The data set is described as follows: Inhibition of oxidative stress in y-GAL4 driven UAS-amyloid beta (1 to 42) induced Drosophila melanogaster Oregon R-positive assessed as reduction in ROS level at 50 uM incubated for 30 mins by H2DCFDA staining based analysis. The format is functional, organism-based.
For data set [4], the system named is Drosophila melanogaster. Put plainly: Anti-alzheimer activity in ey-GAL4 driven UAS-amyloid beta (1 to 42) induced Drosophila melanogaster Oregon R-positive assessed as severe eye phenotype at 50 uM by Stereo zoom microscopic imaging analysis relative to control. In kind it is functional.
Data set [5] is described as follows: Toxicity in Drosophila melanogaster Oregon R-positive assessed as reduction in eclosed flies at 200 uM measured for 15 days relative to control. Further details: scale not given: the % may be the effect or the level left. To be noted: 360 h, time 15 day.
For data set [6], the system named is Drosophila melanogaster. Put plainly: Anti-alzheimer activity in ey-GAL4 driven UAS-amyloid beta (1 to 42) induced Drosophila melanogaster Oregon R-positive assessed as reduction in superoxide level at 100 uM by fluorescence based analysis. In kind it is functional, organism-based.
Data set [7] addresses T1, Acetylcholinesterase. The data set is described as follows: Displacement of propidium iodide from human AChE PAS assessed as reduction in fluorescence intensity at 1 uM incubated for 6 hrs by fluorescence based analysis relative to control. Further details: scale not given: the % may be the effect or the level left.
Data set [8] relates to Mus musculus. Put plainly: Antialzheimer activity in scopolamine-induced Swiss albino mouse model assessed as improvement in memory retention by measuring time spent in platform quadrant at 3 mg/kg, po preincubated with compound for 30 mins followed by scopolamine induction and measured after 5 days by Morris water maze test. In kind it is functional, organism-based. To be noted: time 7230.0 min.

Data set [9] has as its target T1, Acetylcholinesterase. The data set is described as follows: Displacement of propidium iodide from human AChE PAS assessed as reduction in fluorescence intensity at 0.01 uM incubated for 6 hrs by fluorescence based analysis relative to control. Further details: scale not given: the % may be the effect or the level left.
Data set [10] is described as follows: Antioxidant activity assessed as DPPH radical scavenging activity at 200 uM incubated for 30 mins relative to control. In kind it is functional. (DPPH is a stable violet radical that fades when it is reduced.)
Data set [11] has as its target T1, Acetylcholinesterase. The data set is described as follows: Displacement of propidium iodide from human AChE PAS assessed as reduction in fluorescence intensity at 0.1 uM incubated for 6 hrs by fluorescence based analysis relative to control. Further details: scale not given: the % may be the effect or the level left.
For data set [12], the system named is Mus musculus. The data set is described as follows: Antioxidant activity against scopolamine-induced Swiss albino mouse model assessed as increase in SOD level at 3 mg/kg, po by absorbance based analysis. In kind it is functional, organism-based.
A short description of data set [13]: Toxicity in Drosophila melanogaster Oregon R-positive assessed as reduction in eclosed flies at 100 uM measured for 15 days relative to control. Further details: scale not given: the % may be the effect or the level left. The note with it: 360 h, time 15 day.
The test system of data set [14] is Mus musculus. The data set is described as follows: Antialzheimer activity in scopolamine-induced Swiss albino mouse model assessed as reduction in BChE level at 3 mg/kg, po preincubated with compound for 30 mins followed by scopolamine induction and measured after 30 mins. In kind it is functional, organism-based. To be noted: time 1.0 hrs.
A short description of data set [15]: Toxicity in Drosophila melanogaster Oregon R-positive assessed as reduction in eclosed flies at 50 uM measured for 15 days relative to control. The note with it: 360 h, time 15 day. Further details: scale not given: the % may be the effect or the level left.
Data set [16] concerns Drosophila melanogaster. Put plainly: Anti-alzheimer activity in ey-GAL4 driven UAS-amyloid beta (1 to 42) induced Drosophila melanogaster Oregon R-positive assessed as rescued eye phenotype at 100 uM by Stereo zoom microscopic imaging analysis relative to control. In kind it is functional.
Data set [17] relates to Drosophila melanogaster. The data set is described as follows: Anti-alzheimer activity in ey-GAL4 driven UAS-amyloid beta (1 to 42) induced Drosophila melanogaster Oregon R-positive assessed as mild eye phenotype at 50 uM by Stereo zoom microscopic imaging analysis relative to control. In kind it is functional.
Data set [18] concerns the target T1, Acetylcholinesterase. The data set is described as follows: Displacement of propidium iodide from human AChE PAS assessed as reduction in fluorescence intensity at 5 uM incubated for 6 hrs by fluorescence based analysis relative to control. Also noted: scale not given: the % may be the effect or the level left.
A short description of data set [19]: Toxicity in Drosophila melanogaster Oregon R-positive assessed as reduction in eclosed flies at 400 uM measured for 15 days relative to control. Further details: scale not given: the % may be the effect or the level left. The note with it: 360 h, time 15 day.
Data set [20] in a line: Antioxidant activity assessed as DPPH radical scavenging activity incubated for 30 mins. The format is functional.

Structures are written as SMILES. Activity calls are given as the source filed them. No cut-off for these calls is given here.

The IC50 is the concentration that gives 50% inhibition.

Chain of Cholinesterase (P81908 whole entry, the tested form may be a part): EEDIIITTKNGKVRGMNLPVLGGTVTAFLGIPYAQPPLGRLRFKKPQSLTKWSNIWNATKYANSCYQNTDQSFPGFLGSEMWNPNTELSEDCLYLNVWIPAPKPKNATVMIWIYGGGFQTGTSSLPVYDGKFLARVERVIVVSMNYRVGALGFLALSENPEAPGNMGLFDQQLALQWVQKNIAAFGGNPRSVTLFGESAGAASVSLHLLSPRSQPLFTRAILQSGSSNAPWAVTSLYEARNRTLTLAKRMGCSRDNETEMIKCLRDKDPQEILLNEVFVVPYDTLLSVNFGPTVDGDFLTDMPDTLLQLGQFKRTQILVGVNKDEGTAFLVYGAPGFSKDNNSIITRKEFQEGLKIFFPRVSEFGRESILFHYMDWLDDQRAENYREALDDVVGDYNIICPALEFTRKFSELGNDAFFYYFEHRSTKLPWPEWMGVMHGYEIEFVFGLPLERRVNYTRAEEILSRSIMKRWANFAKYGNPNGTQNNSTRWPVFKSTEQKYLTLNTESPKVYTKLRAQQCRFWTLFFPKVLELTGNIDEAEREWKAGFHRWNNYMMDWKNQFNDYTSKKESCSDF
T1 sequence (P22303 whole entry): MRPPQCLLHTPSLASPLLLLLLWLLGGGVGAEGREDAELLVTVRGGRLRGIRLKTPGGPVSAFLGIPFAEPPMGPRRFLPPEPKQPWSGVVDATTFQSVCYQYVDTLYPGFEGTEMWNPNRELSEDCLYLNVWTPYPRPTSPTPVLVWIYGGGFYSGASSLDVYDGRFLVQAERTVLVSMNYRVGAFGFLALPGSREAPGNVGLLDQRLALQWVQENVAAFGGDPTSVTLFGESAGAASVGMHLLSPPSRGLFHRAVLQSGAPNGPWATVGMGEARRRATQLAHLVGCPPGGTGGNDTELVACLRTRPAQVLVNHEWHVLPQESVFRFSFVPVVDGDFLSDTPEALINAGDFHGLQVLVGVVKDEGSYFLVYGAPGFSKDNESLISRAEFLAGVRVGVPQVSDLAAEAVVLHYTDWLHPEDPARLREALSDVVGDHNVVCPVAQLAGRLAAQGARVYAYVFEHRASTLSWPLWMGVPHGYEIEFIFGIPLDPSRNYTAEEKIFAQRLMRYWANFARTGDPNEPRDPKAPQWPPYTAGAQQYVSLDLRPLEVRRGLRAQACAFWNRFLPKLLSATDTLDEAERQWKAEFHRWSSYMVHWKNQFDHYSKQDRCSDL

Consider `CC(c1cccc(OC(=O)NCCc2c[nH]c3ccccc23)c1)N(C)C` (centres undefined), for which the figures for the IC50 on Acetylcholinesterase [1] and at Cholinesterase were 24.5 nM and 14.8 nM, respectively.

For the compound `C[C@@H](c1cccc(OC(=O)NCCc2c[nH]c3ccccc23)c1)N(C)C`, the IC50 was found to be 22.2 nM at Acetylcholinesterase [1] and 11.1 nM on Cholinesterase.

Take `COc1ccc2[nH]cc(CCNC(=O)Oc3cccc(C(C)N(C)C)c3)c2c1` (centres undefined): the IC50 at Acetylcholinesterase [1] came out at 48.3 nM; on Cholinesterase it was 13.6 nM.

Turning to `C[C@H](c1cccc(OC(=O)NCCc2c[nH]c3ccc(Cl)cc23)c1)N(C)C`, the IC50 on Acetylcholinesterase [1] turned out to be 8.38 nM; on Cholinesterase it was 7.66 nM.

Turning to `CC(c1cccc(OC(=O)NCCc2c[nH]c3ccc(O)cc23)c1)N(C)C` (centres undefined), the half-maximal inhibitory concentration (IC50) worked out at 2.31 nM on Acetylcholinesterase [1] and 55.8 nM on Cholinesterase.

Regarding `Cc1ccc2[nH]cc(CCNC(=O)Oc3cccc(C(C)N(C)C)c3)c2c1` (centres undefined), the IC50 turned out to be 73.3 nM on Acetylcholinesterase [1] and 38.7 nM on Cholinesterase.

As to `CCN(C)C(=O)Oc1cccc([C@H](C)N(C)C)c1` [RIVASTIGMINE], the Activity with Drosophila melanogaster [2] came out at 40%; in the data set with Drosophila melanogaster [4], 23%; in [5], 73%; at Acetylcholinesterase [7], 6.3%; at Acetylcholinesterase [9], 1.61%; in [10], 3.71%. The Activity on Acetylcholinesterase [11] was 2.96%; in data set [13] it was 95%; in data set [15], 108%; in the data set with Drosophila melanogaster [16], 33%; in the data set with Drosophila melanogaster [17], 43%; on Acetylcholinesterase [18], 8.74%. The Activity in data set [19] is on record as 29%. The outcome in the data set on Drosophila melanogaster [3], in the data set on Drosophila melanogaster [6], in the data set with Mus musculus [8], in the data set with Mus musculus [12] and with Mus musculus [14] was Active.

Take `Cc1ccc2[nH]cc(CCNC(=O)Oc3cccc([C@H](C)N(C)C)c3)c2c1`: the figures for the IC50 at Acetylcholinesterase [1] and on Cholinesterase were 54.7 nM and 26.5 nM, respectively.

Take `CC(c1cccc(OC(=O)NCCc2c[nH]c3ccc(Cl)cc23)c1)N(C)C` (centres undefined): the results for the concentration for half-maximal inhibition (IC50) on Acetylcholinesterase [1] and on Cholinesterase were 13.8 nM and 2.14 nM, respectively. Moreover, the Activity in [10] stood at 33.3%.

On to `O=C1O[C@H]([C@@H](O)CO)C(O)=C1O` [ASCORBIC ACID], for which the IC50 in [20] is 3510 nM.

On to `COc1ccc2[nH]cc(CCNC(=O)Oc3cccc([C@H](C)N(C)C)c3)c2c1`, for which the IC50 at Acetylcholinesterase [1] amounted to 21.4 nM; on Cholinesterase, 3.15 nM. In addition, in [10], the Activity was 19.8%.
